Publication PMC6681021 (Pharmaceutics, 2019)
“And” between values parts separate entries of the source, which are not always exact repeats. Equal entries are not always repeated. Where two headings read alike, the source gives them in different places.

Tests used:
[1] = Human pharmacokinetics of tofacitinib (literature); type: in vivo; settings: humans; 100–74%
[2] = Pharmacokinetics after 1-min intravenous infusion of tofacitinib to rats; type: in vivo, Sprague-Dawley rats; settings: for clearance / CL renal / MRT / half-life / Vd: Sprague-Dawley; for clearance / CL renal / MRT / half-life / Vd / AUC: rat; for Dose-normalized AUC: normalized to 10 mg/kg; for half-life: read-out: Terminal half-life; for Vd: read-out: Vss; for AUC: 1-min iv infusion, male Sprague-Dawley rats
Protocol: (§1) The pretreatment and surgical procedures for oral and intravenous administration were similar to those described previously. For oral administration, the rats were fasted overnight with free access to water. The rats were anesthetized with ketamine (200 mg/kg), and their carotid arteries were cannulated using polyethylene tubing (Clay Adams, Parsippany, NJ, USA) for blood sampling. For intravenous administration, the rats were anesthetized with ketamine (200 mg/kg), and their jugular veins and carotid arteries were cannulated for drug administration and blood sampling, respectively. Rats were allowed to recover for 4–5 h after surgical procedures. The rats were not restrained during the experimental period and had free access to water and food.
Blood samples (110–220 μL) were collected via the carotid artery at times 0 (prior to drug administration), 1 (at the end of drug infusion), 5, 15, 30, 45, 60, 90, 120, 180, 240, 360, 480, and 600 min. […] To prevent blood clotting, 0.3 mL of heparinized 0.9% NaCl-injectable solution (20 IU/mL) was immediately injected into the carotid artery after each blood sampling. Urine samples were collected over 24 h; in addition, each metabolic cage was rinsed with 20 mL of distilled water 24 h after drug administration, and the rinses were combined with their corresponding 24-h urine samples. […] At 24-h, each rat was exsanguinated, followed by cervical dislocation. The abdomen of each rat was opened and the entire gastrointestinal tract, including its contents and feces, was removed, transferred to a beaker containing 50 mL methanol, and cut into small pieces using scissors.
(§2) Two microliters of hydrocortisone (5 mg/mL) and 40 μL of 20% ammonia solution were added to 100 μL aliquots of biological samples and vortex-mixed for 30 s using a vortex mixer. Each solution was extracted with 1.5 mL of ethyl acetate by centrifugation at 12,000 rpm for 5 min. The organic layer was collected and dried (Dry Thermobath, Eyela, Tokyo, Japan) under a gentle stream of nitrogen gas at 40 °C. The samples were reconstituted in 130 μL of 20% acetonitrile, and 50 μL of resuspended samples were analyzed by HPLC [12].
(§3) The mobile phase consisted of a 69.5:30.5 (v/v) mixture of 10 mM ammonium acetate buffer (pH 5.0) and acetonitrile, respectively, with a flow rate of 1.0 mL/min. Column effluent was monitored by a UV detector at 287 nm.
(§4) Pharmacokinetic parameters, including AUC, apparent volume of distribution at steady state (Vss), mean residence time (MRT), and time-averaged total body (CL), renal (CLR), and nonrenal (CLNR) clearances, were calculated by noncompartmental analysis (WinNonlin, Pharsight Corporation, Mountain View, CA, USA) using standard methods. AUC values were calculated using the trapezoidal rule–extrapolation method. The peak plasma concentration (Cmax) and time to reach Cmax (Tmax) were obtained directly from the experimental data. The mean values of clearance, terminal half-life, and Vss were calculated using the harmonic mean method.

[3] = Pharmacokinetics after oral administration of tofacitinib to rats; type: in vivo, Sprague-Dawley rats; settings: for CL renal / Cmax / Tmax / bioavailability: male, Sprague-Dawley; for CL renal / Cmax / Tmax / bioavailability / AUC: rat; for CL renal: plasma and urine; for Cmax / Tmax / bioavailability / AUC: plasma; for bioavailability: dose-normalized oral AUC / AUC of 10 mg/kg iv, read-out: F (bioavailability); for Dose-normalized AUC: normalized to 10 mg/kg; for AUC: male Sprague-Dawley rats
Protocol: as §1
Blood samples (110–220 μL) were collected via the carotid artery at times 0 (prior to drug administration), 5, 15, 30, 45, 60, 90, 120, 180, 240, 360, 480, 600, and 720 min. Urine and gastrointestinal tract samples were also obtained over 24 h were processed as described above for the corresponding samples collected after intravenous administration.
as §2, §3, §4

[4] = Biliary excretion after intravenous infusion in rats; type: in vivo, Sprague-Dawley rats; settings: 1-min iv infusion 10 mg/kg, 0–24 h bile, n = 3
Protocol: The jugular vein of each rat was cannulated. The abdomen was opened and the bile duct was cannulated with polyethylene tubing. The incision was closed with surgical sutures and each rat was kept warm under an electric light. Each rat was maintained in the supine position during the entire experiment. […] Bile samples were collected over various time periods, from 0–1, 1–2, 2–4, 4–6, and 6–24 h.

## C[C@@H]1CCN(C(=O)CC#N)C[C@@H]1N(C)c1ncnc2[nH]ccc12 [tofacitinib, 3-[(3R,4R)-4-methyl-3-[methyl-(7H-pyrrolo[2,3-day]pyrimidin-4-l)amino]piperidin-1-yl]-3-oxopropanenitril]
[1]
  Oral dose presumed first-pass metabolized in the intestine and the liver: 26%
[2]; plasma, iv 50 mg/kg
  clearance: 14.5 ± 2.33 mL/min/kg
[2]; all intravenous doses
  Ae0–24 h: less than 11.0%
[2]; intravenous, dose and AUC ratios based on 5 mg/kg
  Slope of plot of AUC versus dose: 2.74
[2]; iv
  CLR slower at 50 mg/kg than at 5 mg/kg: 69%
  CLR slower at 50 mg/kg than at 10 mg/kg: 71%
  CLR slower at 50 mg/kg than at 20 mg/kg: 71%
[2]; iv 5 mg/kg
  Ae0–24 h (excreted unchanged in 24-h urine): 7.62 ± 5.08 % of dose
  CLNR: 32.9 ± 7.72 mL/min/kg
  Dose-normalized AUC: 282 µg·min/mL and 282 ± 46.0 µg·min/mL
[2]; iv 10 mg/kg
  Ae0–24 h (excreted unchanged in 24-h urine): 9.40 ± 5.06 % of dose
  CLNR: 26.3 ± 2.16 mL/min/kg
  Dose-normalized AUC: 342 µg·min/mL and 342 ± 33.1 µg·min/mL
[2]; iv 20 mg/kg
  Ae0–24 h (excreted unchanged in 24-h urine): 11.0 ± 3.72 % of dose
  CLNR: 22.6 ± 3.90 mL/min/kg
  Dose-normalized AUC: 404 µg·min/mL and 404 ± 73.0 µg·min/mL
[2]; iv 50 mg/kg
  Ae0–24 h (excreted unchanged in 24-h urine): 5.55 ± 3.91 % of dose
  CLNR: 13.7 ± 2.12 mL/min/kg
  Dose-normalized AUC: 705 µg·min/mL and 705 ± 114 µg·min/mL
[2]; male, plasma, iv 5 mg/kg
  CL renal: 2.69 ± 1.7 mL/min/kg
  MRT: 35.2 min
  clearance: 36.3 ± 6.02 mL/min/kg
  half-life: 38.2 ± 11.7 min
  Vd: 1.26 ± 0.46 L/kg
[2]; male, plasma, iv 10 mg/kg
  CL renal: 2.8 ± 1.69 mL/min/kg
  MRT: 41.1 min
  clearance: 29.5 ± 2.99 mL/min/kg
  half-life: 41.6 ± 7.86 min
  Vd: 1.21 ± 0.579 L/kg
[2]; male, plasma, iv 20 mg/kg
  CL renal: 2.8 ± 1.17 mL/min/kg
  MRT: 35.5 min
  clearance: 25.4 ± 4.26 mL/min/kg
  half-life: 48.1 ± 5.56 min
  Vd: 0.9 ± 0.218 L/kg
[2]; male, plasma, iv 50 mg/kg
  CL renal: 0.824 ± 0.651 mL/min/kg
  MRT: 105 min
  half-life: 97.8 ± 19.2 min
  Vd: 1.49 ± 0.134 L/kg
[2]; male, range over intravenous doses, based on plasma data
  clearance: 14.5 to 36.3 mL/min/kg
[2]; plasma, 5 mg/kg
  AUC: 2350 ng·h/mL
[2]; plasma, 10 mg/kg
  AUC: 5700 ng·h/mL
[2]; plasma, 20 mg/kg
  AUC: 13500 ng·h/mL
[2]; plasma, 50 mg/kg
  AUC: 58800 ng·h/mL
[3]; all four oral doses
  Time to detection in plasma after oral administration: ≤ 5 min
[3]; all oral doses
  Ae0–24 h: less than 17.2%
[3]; based on calculations using the same intravenous and oral doses
  F in rats: 29.1–33.8%
[3]; oral 10 mg/kg
  CL renal: 11.6 ± 2.87 mL/min/kg
  Cmax: 1130 ± 774 ng/mL
  Tmax: 15.7 min
  bioavailability: 29.1%
  Ae0–24 h: 11.3 ± 4.60 % of dose
  Orally administered dose absorbed from the gastrointestinal tract: approximately 96.8%
  Dose-normalized AUC: 99.4 µg·min/mL and 99.4 ± 35.5 µg·min/mL
  AUC: 1660 ng·h/mL
[3]; oral 20 mg/kg
  CL renal: 6.97 ± 3.95 mL/min/kg
  Cmax: 3130 ± 1270 ng/mL
  Tmax: 15.7 min
  bioavailability: 39.3%
  Ae0–24 h: 10.0 ± 6.51 % of dose
  GI24 h (recovered unchanged from entire gastrointestinal tract at 24 h): 3.13 ± 3.27 % of dose
  Dose-normalized AUC: 135 µg·min/mL and 135 ± 26.9 µg·min/mL
  AUC: 4480 ng·h/mL
[3]; oral 50 mg/kg
  CL renal: 7.61 ± 2.82 mL/min/kg
  Cmax: 5620 ± 2180 ng/mL
  Tmax: 34.4 min
  bioavailability: 69.7%
  Ae0–24 h: 17.2 ± 3.98 % of dose
  GI24 h (recovered unchanged from entire gastrointestinal tract at 24 h): 2.77 ± 3.96 % of dose
  Dose-normalized AUC: 238 µg·min/mL and 238 ± 56.0 µg·min/mL
  AUC: 19900 ng·h/mL
[3]; oral 100 mg/kg
  CL renal: 3.37 ± 2.52 mL/min/kg
  Cmax: 13100 ± 5480 ng/mL
  Tmax: 170 min
  bioavailability: 119%
  Ae0–24 h: 13.0± 9.47 % of dose
  GI24 h (recovered unchanged from entire gastrointestinal tract at 24 h): 0.772± 0.905 % of dose
  Dose-normalized AUC: 407 µg·min/mL and 407 ± 179 µg·min/mL
  AUC: 67900 ng·h/mL
[3]; oral 10 mg/kg, at 24 h
  Unabsorbed fraction (Funabs): 3.16%
[3]; oral 10 mg/kg, 10 mg/kg
  GI24 h (recovered unchanged from entire gastrointestinal tract at 24 h): 3.16 % of dose and 3.16 ± 5.12 % of dose
[3]; oral 10 mg/kg, 100% − (3.16% + 29.1%)
  Orally administered dose eliminated by first-pass metabolism: approximately 67.7%
[3]; oral, dose and AUC ratios based on 10 mg/kg
  Slope of plot of AUC versus dose: 4.65
[4]
  Excreted in bile: 0.703 ± 0.303 % of the intravenous dose
